Measured values as given in US20030065039A1, “Biologically active 1,3-bis-aromatic-prop-2-en-1-ones, 1,3-bis-aromatic-propan-1-ones, and 1,3-bis-aromatic-prop-2-yn-1-ones” (Statens Serum Institute, priority 1997, published 2003).

Tests used:
Vero cell cultures = assay: Cytotoxicity in Vero cell cultures; format: cell-based; settings: Vero cells; values given as fractions, footnote a not given
From the text: (§1) In the following is reported the results from a Vero cell culture infected with different viruses. The cell culture used as well as the methods applied are well known to a person skilled in the art.

Simliki forest virus = assay: Antiviral activity in Vero cell cultures; format: cell-based; settings: Vero cells; values given as fractions
Experimental: (§2) IC50 values are determined by the virus plaque formation and/or the virus cytopathic assay using standard methods well-known in the art.
as §1

Coxsackie virus B4 = assay: Antiviral activity in Vero cell cultures; format: cell-based; settings: Vero cells; values given as fractions
Experimental: as §2, §1

Sindbis virus = assay: Antiviral activity in Vero cell cultures; format: cell-based; settings: Vero cells; values given as fractions
Experimental: as §2, §1

Reovirus-1 = assay: Antiviral activity in Vero cell cultures; format: cell-based; settings: Vero cells; values given as fractions
Experimental: as §2, §1

Parainfluenza-3 Virus = assay: Antiviral activity in Vero cell cultures; format: cell-based; settings: Vero cells; values given as fractions
Experimental: as §2, §1

[1] = test system: human embryonic lung (HEL) cells; assay: Cytotoxicity in human embryonic lung (HEL) cells; format: cell-based; settings: HEL cell growth reduced by 50%; values given as fractions
[2] = test system: cytomegalovirus AD-169 strain; assay: Activity against cytomegalovirus in HEL cells (plaque formation); format: cell-based; settings: virus plaque formation reduced by 50%, 100 PFU, values given as fractions
Experimental: as §2

[3] = test system: cytomegalovirus Davis strain; assay: as above; format: cell-based; settings: virus plaque formation reduced by 50%, 100 PFU, values given as fractions
Experimental: as §2

[4] = biological target: T1, Helicobacter pylori fumarate reductase (Helicobacter pylori, UniProt O06913); format: biochemical; settings: at concentration of 0.2 mM
T1 construct: Membrane associated proteins were solubilized from the pellet in 150 mM KCl, pH 7.0; endogenous in cells; host or cells: Helicobacter pylori 007 strain; KCl-solubilised fraction (or sonicate supernatant)
T1 sequence (O06913 1-714): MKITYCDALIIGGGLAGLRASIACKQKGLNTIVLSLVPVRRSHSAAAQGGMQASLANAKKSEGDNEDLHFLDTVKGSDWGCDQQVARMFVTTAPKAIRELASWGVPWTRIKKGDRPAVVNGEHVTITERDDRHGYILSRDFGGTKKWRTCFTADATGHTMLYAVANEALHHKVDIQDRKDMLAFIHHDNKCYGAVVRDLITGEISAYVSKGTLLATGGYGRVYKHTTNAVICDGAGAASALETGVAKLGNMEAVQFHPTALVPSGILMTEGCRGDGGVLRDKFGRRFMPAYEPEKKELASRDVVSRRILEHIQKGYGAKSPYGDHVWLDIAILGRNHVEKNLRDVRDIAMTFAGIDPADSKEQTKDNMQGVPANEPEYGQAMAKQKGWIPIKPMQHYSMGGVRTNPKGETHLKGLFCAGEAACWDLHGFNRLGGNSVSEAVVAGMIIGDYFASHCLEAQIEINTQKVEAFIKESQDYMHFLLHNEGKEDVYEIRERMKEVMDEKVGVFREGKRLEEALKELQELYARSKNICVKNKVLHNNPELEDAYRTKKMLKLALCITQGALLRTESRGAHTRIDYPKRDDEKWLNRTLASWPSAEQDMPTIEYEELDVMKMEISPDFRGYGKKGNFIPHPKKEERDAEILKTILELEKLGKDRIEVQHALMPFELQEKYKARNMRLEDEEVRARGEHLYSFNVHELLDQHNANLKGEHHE
T1 sequence (O06914 1-245 partner): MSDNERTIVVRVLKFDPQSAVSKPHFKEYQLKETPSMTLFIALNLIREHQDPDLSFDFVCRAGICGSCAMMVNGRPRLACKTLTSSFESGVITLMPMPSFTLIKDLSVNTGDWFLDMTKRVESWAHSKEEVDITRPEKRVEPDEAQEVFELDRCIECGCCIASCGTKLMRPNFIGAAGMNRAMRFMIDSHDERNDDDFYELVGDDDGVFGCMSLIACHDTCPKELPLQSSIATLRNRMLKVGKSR
T1 sequence (O06912 1-255 partner): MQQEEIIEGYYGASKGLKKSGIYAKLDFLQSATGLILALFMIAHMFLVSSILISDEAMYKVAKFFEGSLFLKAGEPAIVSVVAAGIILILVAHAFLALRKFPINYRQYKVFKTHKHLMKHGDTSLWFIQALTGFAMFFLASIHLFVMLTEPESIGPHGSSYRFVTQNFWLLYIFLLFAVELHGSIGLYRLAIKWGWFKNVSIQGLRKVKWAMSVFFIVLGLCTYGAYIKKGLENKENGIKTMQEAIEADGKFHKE
Experimental: 1) Extraction of soluble FRD: Bacteria were harvested by centrifugation at 18,000 g for 10 min at 4° C., and were washed 2 times in an isotonic phosphate saline buffer (50 mM sodium phosphate, pH 7.2, 90 mM NaCl, 5 mM Kcl). Bacteria were lysed in 5 mM Tris-HCl, pH 7.4, for 15 minutes, and centrifuged 18,000 g for 10 minutes. Membrane associated proteins were solubilized from the pellet in 150 mM KCl, pH 7.0, in ice bath for 60 min, and then the supernatant was collected after centrifugation (18,000 g for 10 minutes) for the measurement of FRD activity.
2) Extraction of FRD by sonication: Bacteria were harvested by centrifugation at 18,000 g for 10 min at 4° C., were sonicated, and then the supernatant was collected after centrifugation (18,000 g for 10 minutes) for the measurement of FRD activity.
NADH-FRD activity was determined as the rate of NADH-oxidation upon addition of 1 mM fumarate in the KCl-solubilized fraction or sonicated fraction. The reaction was monitored spectrophotometrically at 340 nm (∈=6.2 mM^−1 cm^−1) using 100 μM NADH and usually 3 mg protein in both reference and sample cuvettes. The measurement was carried out in a Shimadzu UV-190 double-beam spectrophotometer. Protein concentrations were determined using a Bio-Rad protein assay (Bio-Rad Laboratories, 200 Alfred Nobel Dr. Hercules, Calif. 94547, USA).
KCl solubilised fraction of bacteria was incubated with different concentrations of various oxygenated chalcones at 28° C. and the remaining FRD activity was measured. The IC50 values were determined as the concentration at which 50% of the activity was inhibited.

[5] = Preliminary 14 days oral toxicity study in rats; format: in vivo; settings: highest dose level 1000 mg/kg/day
Experimental: A preliminary 14 days oral toxicity study in rats was carried out with 6 compounds. Observations included clinical signs, body weights, food intake, haematology, clinical chemistry and macroscopic pathology.

C=CCOc1ccc(C(=O)/C=C/c2cccc(OC)c2OC)cc1 [2,3m4′ac]
Minimum Cytotoxic Concentration (Vero cell cultures): <1/100
Minimum inhibitory concentration, Simliki forest virus (Simliki forest virus): <1/100
Minimum inhibitory concentration, Coxsackie virus B4 (Coxsackie virus B4): <1/100
Minimum inhibitory concentration, Sindbis virus (Sindbis virus): <1/100
Minimum inhibitory concentration, Reovirus-1 (Reovirus-1): <1/100
Minimum inhibitory concentration, Parainfluenza-3 Virus (Parainfluenza-3 Virus): <1/100
Cytotoxicity CC50 [1]: <1/30
Antiviral activity IC50, AD-169 strain, Assay 1 [2]: <1/30
Antiviral activity IC50, Davis strain, Assay 1 [3]: <1/30

C=CCOc1ccc(C(=O)/C=C/c2cc(OC)c(OC)cc2OC)cc1 [2,4,5m4′ac]
Minimum Cytotoxic Concentration (Vero cell cultures): <1/100
Minimum inhibitory concentration, Simliki forest virus (Simliki forest virus): 1/600
Minimum inhibitory concentration, Coxsackie virus B4 (Coxsackie virus B4): 1/600
Minimum inhibitory concentration, Sindbis virus (Sindbis virus): 1/2000
Minimum inhibitory concentration, Reovirus-1 (Reovirus-1): <1/100
Minimum inhibitory concentration, Parainfluenza-3 Virus (Parainfluenza-3 Virus): 1/2000
Cytotoxicity CC50 [1]: <1/30
Antiviral activity IC50, AD-169 strain, Assay 1 [2]: 1/60
Antiviral activity IC50, Davis strain, Assay 1 [3]: <1/30

C=CCOc1ccc(C(=O)/C=C/c2c(OC)cc(OC)cc2OC)cc1 [2,4,6m4′ac]
Minimum Cytotoxic Concentration (Vero cell cultures): <1/100
Minimum inhibitory concentration, Simliki forest virus (Simliki forest virus): 1/600
Minimum inhibitory concentration, Coxsackie virus B4 (Coxsackie virus B4): 1/600
Minimum inhibitory concentration, Sindbis virus (Sindbis virus): 1/2000
Minimum inhibitory concentration, Reovirus-1 (Reovirus-1): <1/100
Minimum inhibitory concentration, Parainfluenza-3 Virus (Parainfluenza-3 Virus): 1/2000
Cytotoxicity CC50 [1]: <1/30
Antiviral activity IC50, AD-169 strain, Assay 1 [2]: 1/200
Antiviral activity IC50, Davis strain, Assay 1 [3]: 1/120

COc1ccc(/C=C/C(=O)c2ccccc2O)c(OC)c1 [2,4m2′hc]
Minimum Cytotoxic Concentration (Vero cell cultures): <1/100
Minimum inhibitory concentration, Simliki forest virus (Simliki forest virus): <1/100
Minimum inhibitory concentration, Coxsackie virus B4 (Coxsackie virus B4): <1/100
Minimum inhibitory concentration, Sindbis virus (Sindbis virus): <1/100
Minimum inhibitory concentration, Reovirus-1 (Reovirus-1): <1/100
Minimum inhibitory concentration, Parainfluenza-3 Virus (Parainfluenza-3 Virus): <1/100
Cytotoxicity CC50 [1]: <1/60
Antiviral activity IC50, AD-169 strain, Assay 1 [2]: <1/60
Antiviral activity IC50, Davis strain, Assay 1 [3]: <1/60

COc1ccc(/C=C/C(=O)c2ccccc2)c(OC)c1 [2,4mc]
Minimum Cytotoxic Concentration (Vero cell cultures): <1/100
Minimum inhibitory concentration, Simliki forest virus (Simliki forest virus): <1/100
Minimum inhibitory concentration, Coxsackie virus B4 (Coxsackie virus B4): <1/100
Minimum inhibitory concentration, Sindbis virus (Sindbis virus): <1/100
Minimum inhibitory concentration, Reovirus-1 (Reovirus-1): <1/100
Minimum inhibitory concentration, Parainfluenza-3 Virus (Parainfluenza-3 Virus): <1/100
Cytotoxicity CC50 [1]: <1/30
Antiviral activity IC50, AD-169 strain, Assay 1 [2]: <1/30
Antiviral activity IC50, Davis strain, Assay 1 [3]: 1/35

C=CCOc1ccc(C(=O)/C=C/c2cc(OC)ccc2OC)cc1 [2,5m4′ac]
Minimum Cytotoxic Concentration (Vero cell cultures): <1/100
Minimum inhibitory concentration, Simliki forest virus (Simliki forest virus): <1/100
Minimum inhibitory concentration, Coxsackie virus B4 (Coxsackie virus B4): <1/100
Minimum inhibitory concentration, Sindbis virus (Sindbis virus): <1/100
Minimum inhibitory concentration, Reovirus-1 (Reovirus-1): <1/100
Minimum inhibitory concentration, Parainfluenza-3 Virus (Parainfluenza-3 Virus): <1/100
Cytotoxicity CC50 [1]: <1/30
Antiviral activity IC50, AD-169 strain, Assay 1 [2]: 1/35
Antiviral activity IC50, Davis strain, Assay 1 [3]: 1/55

COc1cccc(OC)c1/C=C/C(=O)c1ccc(O)cc1 [2,6m4′hc]
Minimum Cytotoxic Concentration (Vero cell cultures): <1/100
Minimum inhibitory concentration, Simliki forest virus (Simliki forest virus): 1/600
Minimum inhibitory concentration, Coxsackie virus B4 (Coxsackie virus B4): 1/600
Minimum inhibitory concentration, Sindbis virus (Sindbis virus): 1/2000
Minimum inhibitory concentration, Reovirus-1 (Reovirus-1): <1/100
Minimum inhibitory concentration, Parainfluenza-3 Virus (Parainfluenza-3 Virus): 1/600
Cytotoxicity CC50 [1]: 1/80
Antiviral activity IC50, AD-169 strain, Assay 1 [2]: 1/150
Antiviral activity IC50, Davis strain, Assay 1 [3]: 1/300

O=C(CC(=O)C(F)(F)F)c1cccs1 [2-thenoyltrifluoroacetone, reference compound]
activity of NADH-fumarate reductase [4]: almost completely inhibited

C=CCOc1ccc(C(=O)/C=C/c2cc(OC)c(OC)c(OC)c2)cc1 [3,4,5m4′ac]
Minimum Cytotoxic Concentration (Vero cell cultures): <1/100
Minimum inhibitory concentration, Simliki forest virus (Simliki forest virus): 1/600
Minimum inhibitory concentration, Coxsackie virus B4 (Coxsackie virus B4): 1/2000
Minimum inhibitory concentration, Sindbis virus (Sindbis virus): 1/2000
Minimum inhibitory concentration, Reovirus-1 (Reovirus-1): <1/100
Minimum inhibitory concentration, Parainfluenza-3 Virus (Parainfluenza-3 Virus): 1/2000
Cytotoxicity CC50 [1]: <1/60
Antiviral activity IC50, AD-169 strain, Assay 1 [2]: 1/150
Antiviral activity IC50, Davis strain, Assay 1 [3]: 1/85

COc1ccc(/C=C/C(=O)c2ccc(O)cc2)cc1OC [3,4m4′hc]
Minimum Cytotoxic Concentration (Vero cell cultures): <1/100
Minimum inhibitory concentration, Simliki forest virus (Simliki forest virus): <1/100
Minimum inhibitory concentration, Coxsackie virus B4 (Coxsackie virus B4): <1/100
Minimum inhibitory concentration, Sindbis virus (Sindbis virus): <1/100
Minimum inhibitory concentration, Reovirus-1 (Reovirus-1): <1/100
Minimum inhibitory concentration, Parainfluenza-3 Virus (Parainfluenza-3 Virus): <1/100
Cytotoxicity CC50 [1]: <1/30
Antiviral activity IC50, AD-169 strain, Assay 1 [2]: 1/45
Antiviral activity IC50, Davis strain, Assay 1 [3]: 1/55

C=CCOc1ccc(C(=O)/C=C/c2ccc(OC)cc2OC)cc1 [24m4′ac, 2,4-dimethoxy-4′allyloxychalcone]
toxic effects [5]: No toxic effects
